We go through 4 compounds from US20180332879A1, “AGENT FOR IMPROVING AFTERTASTE HAVING HIGH INTENSITY SWEETENERS” (NAGAOKA CO., LTD., priority 2017, published 2018).

Residues, ends and D or L forms follow the SMILES beside them.

A short description of assay [1]: Sweetness degree and taste characteristics of sweetener solutions equivalent to 8% by mass aqueous sugar solution. Conditions: intensity of sweetness, sweetness degree of sugar defined as 1. How it is done: Solutions, each having a sweetness degree corresponding to an 8% by mass aqueous sugar solution, were prepared using the various high-intensity sweeteners shown in Table 1. In Table 1, each of the sweetness degrees represents the intensity of sweetness wherein the sweetness degree of sugar is defined as 1, and each of the concentrations represents the concentration of a high-intensity sweetener in the solution.

A short description of assay [2]: Sensory evaluation by seven panelists: improvement of the quality of sweetness and impure taste of a high-intensity sweetener solution after adding the improving agent. The settings on record: summary of Table 2. The protocol: The resultant solution 1 (an aspartame solution) in Preparation Example 3 was added the resultant solution in Preparation Example 1 in an amount of 0.033% by mass. The concentration of isobutyl angelate added to the solution 1 was 0.0099 ppm by mass. The taste of the solution 1 having isobutyl angelate added thereto was evaluated by the following method.
The solution 1 (without addition of isobutyl angelate) was tasted by seven panelists (one twenty-something male, one thirty-something male, one forty-something male, one fifty-something male, one sixty-something male, and one twenty-something female and one thirty-something female). Subsequently, the seven panelists rinsed their mouths sufficiently, and then the solution 1 containing isobutyl angelate (with addition of isobutyl angelate) was tasted by the seven panelists. The panelists compared the isobutyl-angelate-free solution with the isobutyl-angelate-added solution, and then determined whether or not the quality of sweetness and the impure taste of the isobutyl-angelate-added solution were improved compared with the isobutyl-angelate-free solution in accordance with the following criteria. When the sum total of the scores determined by the seven panelists was 10 points or greater, it was determined that the quality of sweetness and the impure taste were improved. […]

Take `CC1=CC(=O)NS(=O)(=O)O1` [Acesulfame potassium]: the Sweetness degree in assay [1] was 200 times.
The same measure, in the same setting: the result for `COC(=O)[C@H](Cc1ccccc1)NC(=O)[C@@H](N)CC(=O)O` [Aspartame] (H-Asp-Phe-OMe) reads 200 times; that for `OC[C@H]1O[C@H](O[C@]2(CCl)O[C@H](CCl)[C@@H](O)[C@@H]2O)[C@H](O)[C@@H](O)[C@H]1Cl` [Sucralose], 600 times.
For the compound `C/C=C(/C)C(=O)OCC(C)C` [isobutyl angelate, Isobutyl angelate], the “Unpleasant aftertaste and impure taste (harsh, astringent) of a high-intensity sweetener in a solution” value in assay [2] is “can be improved”.
